Experimental data taken from patent US20160303127A1, “COMBINATION THERAPY WITH C-MET AND EGFR ANTAGONISTS” (Genentech, Inc., priority 2008, published 2016).

How the values were obtained:
[1] = system: EBC-1 shMet-4.5 tumors; experiment: Combination efficacy of erlotinib with c-met knockdown (Dox) in the EBC-1 shMet-4.5 NSCLC xenograft model; type: in vivo, nude mice (nu/nu); conditions: EBC-1 shMet-4.5 xenograft
Protocol: Test material. Erlotinib (Tarceva™) was provided by OSI Pharmaceuticals to the Formulations Department at Genentech and was weighed out along with a sufficient amount of vehicle (methylcellulose tween (MCT)). Materials were stored in a refrigerator set to maintain a temperature range of 4° C. to 8° C. Anti-c-met monovalent monoclonal antibody MetMAb (rhuOA5D5v2) (WO2007/063816) was provided by the Antibody Engineering Department at Genentech, Inc., in a clear liquid form. The EBC-1 cell line was obtained from Japanese Collection of Research Bioresources (JCRB). Species. Forty nude mice (nu/nu) were obtained from Charles River Laboratories (CRL) and were acclimatized for at least one week prior to being put on study. Animals were housed in ventilated caging systems in rooms with filters supplying High-Efficiency Particulate Air (HEPA). Only animals that appeared to be healthy and were free of obvious abnormalities were used for the study. Study design. EBC-1 cells were cultured in growth media that consisted of RPMI 1640 media (Invitrogen), 2 mM L-glutamine, and 10% fetal bovine serum. To prepare cells for inoculation into mice, cells were trypsinized, washed with ten milliliters of sterile 1× phosphate buffered saline (PBS). A subset of cells was counted by trypan blue exclusion and the remainder of cells was resuspended in 100 μl of sterile 1× PBS to a concentration of 5×10^7 cells per milliliter. Mice were inoculated subcutaneously in the right sub-scapular region with 5×10^6 EBC-1 cells. […] Mice in Group 1 (control group) were treated with 100 μL vehicle control, methylcellulose tween (MCT), every day (QD) via oral gavage (PO) and were switched to drinking water containing 5% sucrose. […] Dox and sucrose water was changed every 2-3 days. Erlotinib and MCT were dosed for 14 days, stopped for 6 days and then resumed for the remainder of the study (20 days). […] All studies and handling of mice complied with the Institutional Animal Care and Use Committee (IACUC) guidelines. [table] Tumor and Body Weight Measurement. […] Fowler Company, Inc.; Newton, Mass.). The following formula was used with Excel v11.2 (Microsoft Corporation; Redmond, Wash.) to calculate tumor volume: […] Efficacy Data Analysis. Tumor inhibition was plotted using KaleidaGraph 3.6 (Synergy Software; Reading, Pa.). Percent growth inhibition (% Inh) at Day 17 was calculated as follows: […] Tumor incidence (TI) was determined by the number of measurable tumors in each group at Day 17. […] Mean tumor volume and standard error of the mean (SEM) were calculated using JMP software, version 5.1.2 (SAS Institute; Cary, N.C.). Data analysis and generation of p-values using either Student's t-test or the Dunnett's t-test was also done using JMP software, version 5.1.2. […] Mice were then grouped into four treatment arms; […] Vehicles, Group 2: Doxycycline (Dox), Group 3: erlotinib (100 mg/kg), and Group 4: erlotinib+Dox (See Table 6).

[2] = target: c-met (as expressed in NCI-H596 cells) (human) (UniProt P08581); experiment: cell-based or functional assay
[3] = 10 mice per group, any day during the study

pMet/total Met in NCI-H596 xenograft tumors, percent of vehicle control (immunoprecipitation and immunoblot, Li-Cor quantification) (% of vehicle control) [2]	Compound	number of complete responses (CR; tumor regression of 100%) [1, 3]	number of partial responses (PR; tumor regression >50% but <100% of starting tumor volume) [1, 3]	reduction in tumor growth compared to the vehicle control (tumor inhibition) ([1]; nude mice, day 19, erlotinib 100 mg/kg PO QD, Dox in drinking water) [%]
–	C[C@H]1c2cccc(O)c2C(=O)C2=C(O)[C@]3(O)C(=O)C(C(N)=O)=C(O)[C@@H](N(C)C)[C@@H]3[C@@H](O)[C@@H]21 [Dox, doxycycline]	1	2	38
12	Anti-c-met monovalent monoclonal antibody MetMAb (rhuOA5D5v2)	–	–	–
